Assay results from patent publication US10765114B2, “4-amino-6-(pyridyl and 2-substitutedphenyl)-picolinates and 6-amino-2-(pyridyl and 2-substitutedphenyl)-pyrimidine-4-carboxylates and their use as herbicides” (Dow AgroSciences LLC, priority 2013, dated 2020).
Read-outs that look alike come from different tables or passages of the source.

Assays:
[1] = system: Key Broadleaf Weed and Crop Species; assay: Post-Emergent Test II (Table 5); format: in vivo; details: post-emergence, 336 h; for pest or weed control at 70 g/ha: application rate 70 (kg ai/ha; footnote: g ai/ha); for pest or weed control at 140 g/ha: application rate 140 (kg ai/ha; footnote: g ai/ha)
Method in brief: (§1)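 Post-emergence greenhouse spray, 1st-2nd true leaf stage; track sprayer, 187 L/ha; acetone/DMSO stock diluted in aqueous acetone/IPA/DMSO with Atplus 411F and Triton X-155; rates 1× to 1/16×; subirrigated; visual injury 0 (none) to 100% (complete kill) at 14 days.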

[2] = system: Key Grass and Sedge Weeds as well as Grass Crops; assay: Post-Emergent Test II (Table 6); format: in vivo; details: post-emergence, 336 h, 14 days after application; for pest or weed control at 70 g/ha: 70 g ai/ha; for pest or weed control at 140 g/ha: 140 g ai/ha
Method in brief: as §1

[3] = Abutilon theophrasti, ABUTH: velvetleaf (Abutilon theophrasti), read-out: Visual Growth Reduction (%) 14 Days After Application ABUTH
[4] = Amaranthus retroflexus, AMARE: redroot pigweed (Amaranthus retroflexus), read-out: Visual Growth Reduction (%) 14 Days After Application AMARE
[5] = Brassica napus, BRSSS: oilseed rape, canola (Brassica napus), read-out: Visual Growth Reduction (%) 14 Days After Application BRSSS
[6] = Chenopodium album, CHEAL: lambsquarters (Chenopodium album), read-out: Visual Growth Reduction (%) 14 Days After Application CHEAL
[7] = Euphorbia heterophylla, EPHHL: wild poinsettia (Euphorbia heterophylla), read-out: Visual Growth Reduction (%) 14 Days After Application EPHHL
[8] = Helianthus annuus, HELAN: sunflower (Helianthus annuus), read-out: Visual Growth Reduction (%) 14 Days After Application HELAN
[9] = Viola tricolor, VIOTR: wild pansy (Viola tricolor), read-out: Visual Growth Reduction (%) 14 Days After Application VIOTR
[10] = CYPSS, read-out: Visual Growth Reduction (%) 14 Days After Application CYPSS
[11] = DIGSA: crabgrass (Digitaria sanguinalis), read-out: Visual Growth Reduction (%) 14 Days After Application DIGSA
[12] = ORYSS (crop), read-out: Visual Growth Reduction (%) 14 Days After Application ORYSS
[13] = SETFA: giant foxtail (Setaria faberi), read-out: Visual Growth Reduction (%) 14 Days After Application SETFA
[14] = SORVU: grain sorghum (Sorghum vulgare), read-out: Visual Growth Reduction (%) 14 Days After Application SORVU
[15] = TRZSS (crop), read-out: Visual Growth Reduction (%) 14 Days After Application TRZSS
[16] = ZEAMX: maize, corn (Zea mays), read-out: Visual Growth Reduction (%) 14 Days After Application ZEAMX

Compound | pest or weed control at 70 g/ha [1, 3] [%] | pest or weed control at 140 g/ha [1, 3] [%] | pest or weed control at 70 g/ha [1, 4] [%] | pest or weed control at 140 g/ha [1, 4] [%] | pest or weed control at 70 g/ha [1, 5] [%] | pest or weed control at 140 g/ha [1, 5] [%] | pest or weed control at 70 g/ha [1, 6] [%] | pest or weed control at 140 g/ha [1, 6] [%] | pest or weed control at 70 g/ha [1, 7] [%] | pest or weed control at 140 g/ha [1, 7] [%] | pest or weed control at 70 g/ha [1, 8] [%] | pest or weed control at 140 g/ha [1, 8] [%] | pest or weed control at 70 g/ha [1, 9] [%] | pest or weed control at 140 g/ha [1, 9] [%] | pest or weed control at 70 g/ha [2, 10] [%] | pest or weed control at 140 g/ha [2, 10] [%] | pest or weed control at 70 g/ha [2, 11] [%] | pest or weed control at 140 g/ha [2, 11] [%] | pest or weed control at 70 g/ha [2, 12] [%] | pest or weed control at 140 g/ha [2, 12] [%] | other results
COC(=O)c1nc(-c2ccc(Cl)c(F)c2Cl)cc(N)c1Cl [Compound 72] | 95 to 100 | 95 to 100 | 95 to 100 | 95 to 100 | 85 to 94 | 95 to 100 | 95 to 100 | 95 to 100 | 85 to 94 | 85 to 94 | 75 to 84 | 85 to 94 | 95 to 100 | 95 to 100 | 95 to 100 | 95 to 100 | 75 to 84 | 75 to 84 | 0 to 29 | 0 to 29 | pest or weed control at 70 g/ha [2, 13]: 75 to 84%; pest or weed control at 140 g/ha [2, 13]: 75 to 84%; pest or weed control at 70 g/ha [2, 14]: 60 to 74%; pest or weed control at 140 g/ha [2, 14]: 95 to 100%; pest or weed control at 70 g/ha [2, 15]: 45 to 59%; pest or weed control at 140 g/ha [2, 15]: 45 to 59%; pest or weed control at 70 g/ha [2, 16]: 60 to 74%; pest or weed control at 140 g/ha [2, 16]: 75 to 84%; melting point: 183 to 189 °C
COC(=O)c1nc(-c2ccc(Cl)c(F)c2C)c(Cl)c(N)c1Cl [Compound 3] | 60 to 74 | 60 to 74 | 95 to 100 | 95 to 100 | 0 to 29 | 0 to 29 | 60 to 74 | 75 to 84 | 0 to 29 | 0 to 29 | 75 to 84 | 75 to 84 | 0 to 29 | 0 to 29 | 0 to 29 | 0 to 29 | 0 to 29 | 0 to 29 | 0 to 29 | 0 to 29 | pest or weed control at 70 g/ha [2, 13]: 0 to 29%; pest or weed control at 140 g/ha [2, 13]: 0 to 29%; pest or weed control at 70 g/ha [2, 14]: 0 to 29%; pest or weed control at 140 g/ha [2, 14]: 0 to 29%; pest or weed control at 70 g/ha [2, 15]: 0 to 29%; pest or weed control at 140 g/ha [2, 15]: 0 to 29%; pest or weed control at 70 g/ha [2, 16]: 0 to 29%; pest or weed control at 140 g/ha [2, 16]: 0 to 29%; melting point: 122 to 136 °C
